These results are taken from patent publication US20060074083A1, “Cyclic and acyclic propenones for treating CNS disorders” (MERZ PHARMA GMBH & CO. KGAA, priority 2004, published 2006).

The term melting point denotes the temperature of the solid-liquid transition. Turning to `O=C(/C=C/c1cnc2ccccc2c1)C12CC3CC(CC(C3)C1)C2` [Example 7, 1-Adamantan-1-yl-3-quinolin-3-yl-propenone], the melting point was in the range of 169 to 171 °C. `O=C(/C=C/c1cnc2ccccc2c1)C1CC1` [Example 5, 1-Cyclopropyl-3-quinolin-3-yl-propenone] returned a melting point of 101 to 102 °C. The result for `COc1ccc(/C=C/C(=O)C23CC4CC(CC(C4)C2)C3)cc1C` [Example 10, 1-Adamantan-1-yl-3-(4-methoxy-3-methyl-phenyl)-propenone] reads 138 to 140 °C; that for `COc1cc(/C=C/C(=O)C23CC4CC(CC(C4)C2)C3)cc(OC)c1` [Example 4, 1-Adamantan-1-yl-3-(3,5-dimethoxy-phenyl)-propenone], 118 to 119 °C; that for `O=C(/C=C/c1ccc2c(c1)OCCO2)C12CC3CC(CC(C3)C1)C2` [Example 11, 1-Adamantan-1-yl-3-(2,3-dihydrobenzo[1,4]dioxin-6-yl)-propenone], 125 to 127 °C.
